# What was measured:
# Calpain I [1] = biological target: T1, Calpain I (Homo sapiens, UniProt P07384); test: Calpain I 14C-methylated casein proteolysis (Table 1A); format: biochemical
# T1 sequence (P07384 1-714): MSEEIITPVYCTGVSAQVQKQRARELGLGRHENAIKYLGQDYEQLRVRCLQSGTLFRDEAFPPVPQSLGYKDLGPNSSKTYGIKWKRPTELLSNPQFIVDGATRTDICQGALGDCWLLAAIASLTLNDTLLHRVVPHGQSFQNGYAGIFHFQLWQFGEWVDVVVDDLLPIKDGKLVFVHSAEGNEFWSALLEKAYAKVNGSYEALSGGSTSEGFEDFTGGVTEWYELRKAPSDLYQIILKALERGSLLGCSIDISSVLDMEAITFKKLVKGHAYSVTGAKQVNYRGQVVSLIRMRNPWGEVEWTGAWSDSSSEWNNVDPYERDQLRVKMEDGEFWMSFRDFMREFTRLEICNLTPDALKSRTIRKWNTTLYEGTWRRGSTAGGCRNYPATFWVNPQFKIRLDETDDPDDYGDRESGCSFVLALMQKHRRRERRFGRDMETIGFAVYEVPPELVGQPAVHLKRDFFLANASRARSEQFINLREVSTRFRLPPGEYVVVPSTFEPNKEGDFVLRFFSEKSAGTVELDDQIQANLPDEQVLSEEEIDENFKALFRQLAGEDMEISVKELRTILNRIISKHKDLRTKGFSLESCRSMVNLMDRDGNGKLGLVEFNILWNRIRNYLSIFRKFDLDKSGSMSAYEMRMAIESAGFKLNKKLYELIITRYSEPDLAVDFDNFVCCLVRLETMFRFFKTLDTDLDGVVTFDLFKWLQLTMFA
# T1 sequence (P04632 1-268 partner): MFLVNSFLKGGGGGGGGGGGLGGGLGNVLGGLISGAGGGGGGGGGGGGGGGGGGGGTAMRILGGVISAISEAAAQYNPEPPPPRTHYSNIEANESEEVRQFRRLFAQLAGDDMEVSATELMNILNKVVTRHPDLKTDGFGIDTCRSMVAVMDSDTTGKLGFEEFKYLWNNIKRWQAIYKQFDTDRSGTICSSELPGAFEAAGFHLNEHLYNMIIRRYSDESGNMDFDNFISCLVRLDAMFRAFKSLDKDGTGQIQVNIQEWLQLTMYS
# Procedure: The isocoumarins are irreversible inhibitors of Calpain. We obtained IC50 values for a variety of these Calpain Inhibitors as a kinetic analysis of these compounds.
# Calpains I and II were purified by the method of (Yoshimura, et al. 1983). (Kitahara 1984) provides an alternative purification scheme. Calpain II may alternatively be purchased from Sigma Chemical Co. as "Calcium Activated Neutral Protease." In this assay, purified Calpain was incubated with ^14 C-methylated casein in the presence of various Heterocyclic Compounds and the amount of acid-soluble radioactivity released by the action of Calpain was measured.
# Papain = biological target: T2, Papain (Carica papaya, UniProt P00784); test: Papain KI (Table 1B(ii)); format: biochemical
# T2 sequence (P00784 134-345): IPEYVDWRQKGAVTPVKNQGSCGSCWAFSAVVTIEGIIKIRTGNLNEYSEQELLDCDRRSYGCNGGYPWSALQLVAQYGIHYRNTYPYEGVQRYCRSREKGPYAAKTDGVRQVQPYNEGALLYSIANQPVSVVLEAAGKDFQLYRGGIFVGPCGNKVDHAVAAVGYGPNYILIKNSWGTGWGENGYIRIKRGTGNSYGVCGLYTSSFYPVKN
# Source text: (§1) We tested the ability of an additional group of Peptide Keto-Compounds to inhibit several proteases in order to evaluate their specificity for Calpain.
# Calpain I [2] = biological target: T1, Calpain I; test: Calpain I KI (Table 1B(ii)); format: biochemical; conditions: Table 1B(ii)
# Source text: as §1
# Cathepsin B = Cathepsin B (Bos taurus, UniProt P07688); test: Cathepsin B KI (Table 1B(ii)); format: biochemical; conditions: read-out: KI CathB
# Source text: as §1
# Calpain within platelets = test: Platelet membrane permeation assay, spectrin proteolysis (Examples 4A, 4B); format: cell-based, rat; conditions: for inhibition of Calpain within platelets / platelet assay, semi-quantitative: 100 μM; for inhibition of Calpain within platelets: A23187 1 μM; for IC50: concentration at which 50% of the Calpain activation present in controls occurred
# Procedure: Platelets were isolated by a modification of the method of Ferrell and Martin, J Biol. Chem., 264:20723-20729 (1989), the disclosure of which is hereby incorporated by reference. Blood (15-20 ml) was drawn from male Sprague-Dawley rats into 100 mM EDTA-citrate containing 10 units heparin, and centrifuged 30 minutes at 1600 rpm at room temperature. The plasma was resuspended in 15 ml buffer 1 (136 mM NaCl, 2.7 mM KCl, 0.42 mM NaH2 PO4, 12 mM NaHCO3, 2 mM MgCl2, 2 mg/ml BSA (Sigma), 5.6 mM glucose, 22 mM Na3 Citrate pH 6.5) and platelets were isolated at 2200 rpm at room temperature of 25 minutes. Platelets were resuspended to 10^7 cells/ml in buffer 2 (136 mM NaCl, 2.7 mM KCl, 0.42 NaH2 PO4, 12 mM NaHCO3, 2 mM MgCl, 1 mg/ml BSA, 5.6 mM glucose, 20 mM HEPES pH 7.4) and allowed to "rest" for a minimum of 10 minutes at room temperature before use.
# Platelets were incubated for 5 minutes in the presence of inhibitor. In order to provide sufficient intracellular calcium to activate Calpain, the calcium ionophore A23187 was added to a final concentration of 1 μM. After a further 5 minute incubation, the platelets were harvested by centrifugation (1 min 10,000×g) and resuspended in 10% sodium dodecyl sulfate, 10 mM Tris pH=8.0, 5% β-mercaptoethanol, 0.02% bromophenol blue, and heated to 95° C. for 5 min. Samples were subjected to SDS-PAGE on 6% mini gels and transferred to nitrocellulose (Schleicher and Schuell BAS3) for 2 hours at 100 mA/gel in an LKB Novablot. Filters were blocked for 10 minutes in 0.25% gelatin, 1% BSA, 0.25% Triton X100, 0.9% NaCl, 10 mM Tris-Cl pH 7.5, incubated overnight in the same solution containing antibody to rat spectrin, washed 3×10 minutes with 10 mM Tris-Cl pH 7.5, 0.5 % Triton X100, incubated 4 hours in wash buffer plus alkaline phosphatase conjugated goat anti-rabbit antibody (Biorad), and washed as above. Filters were developed using the Biorad AP conjugate substrate kit. Spectrin immunoreactivity on the filters was quantitated by densitometry.
# PP Elastase = PP Elastase (Sus scrofa, UniProt P00772); test: PP Elastase KI (Table 1B(ii)); format: biochemical
# PP Elastase, sequence (P00772 27-266): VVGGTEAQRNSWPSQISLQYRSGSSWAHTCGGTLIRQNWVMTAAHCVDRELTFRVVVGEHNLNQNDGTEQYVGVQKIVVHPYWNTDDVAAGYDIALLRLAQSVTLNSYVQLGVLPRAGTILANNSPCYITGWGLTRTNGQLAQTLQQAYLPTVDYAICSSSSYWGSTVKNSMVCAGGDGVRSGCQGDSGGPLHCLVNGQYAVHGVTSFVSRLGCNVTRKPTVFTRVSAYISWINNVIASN
# Source text: as §1
# Chym = Chym (Bos taurus, UniProt P00766); test: Chym KI (Table 1B(ii)); format: biochemical
# Source text: as §1
# Calpain II = Calpain II KI (Table 1B(ii)); format: biochemical
# Source text: as §1
# [3] = Stability in liver homogenates; format: in vitro ADME; conditions: unit assumed
# Source text: (§2) We determined the haft-life of several Peptide Keto-Compounds in both plasma and liver homogenates.
# Stability in plasma = format: in vitro ADME; conditions: unit assumed
# Source text: as §2
# [4] = test system: Calpain in crude brain extracts; test: Ca2+-stimulated spectrin proteolysis in crude brain extracts (Example 2); format: biochemical; conditions: 100 μM
# Procedure: The activity of Calpain in crude brain extracts was measured by examining the Ca^2+ -stimulated proteolysis of the endogenous substrate spectrin. Brain tissue was homogenized in 10 mM Tris pH=7.4, 0.32M sucrose, 1 mM EGTA, 1 mM dithiothreitol and the nuclei and debris removed by low speed centrifugation. […] Proteolysis of spectrin was evaluated by western blot as described by Seubert, et at. (Brain Research, 459:226-232, 1988), the disclosure of which is hereby incorporated by reference. Briefly, a known quantity of a spectrin-containing sample treated with Calpain is separated by SDS-PAGE and immunoblotted with anti-spectrin antibody. The amount of spectrin immunoreactivity found corresponding to the characteristic BDP's is indicative of the amount of […] activity present in the sample. An examplary method for quantitating BDP's is to assay Spectrin BDP's by homogenizing brain parts in 20 mM Tris pH=7.2, 0.32M sucrose, 50 μM Ac-Leu-Leu-nLeu-H on ice. Homogenates are then mixed 1:1 with 10% SDS, 5% β-mercaptoethanol, 10% glycerol, 10 mM Tris pH=8.0, 0.5% bromophenolblue, heated to 95° C., and subjected to electrophoresis in 41/2% polyacrylamide gels. The proteins in the gels are transferred to nitrocellulose and the spectrin and BDP's detected using a rabbit polyclonal anti-spectrin antibody and established immunodetection methods. The amount of spectrin and BDP's in each sample can be quantitated by densitrometric scanning of the developed nitrocellulose.
Compound,IC50 (Calpain I [1]),Ki (Cathepsin B),Ki (PP Elastase),Ki (Chym),Ki (Calpain II),t1/2 liver [3],IC50 (Calpain within platelets),t1/2 plasma (Stability in plasma),Ki (Papain),Ki (Calpain I [2]),inhibition of Calpain within platelets (Calpain within platelets),"platelet assay, semi-quantitative (Calpain within platelets)",inhibition of spectrin proteolysis in crude brain extracts [4]
"N=C(N)SCCOc1oc(=O)c2cc(NC(=O)Cc3ccccc3)ccc2c1Cl [PhCH2 CONH-CiTEtOIC, 7-(phenylacetylamino)-4-chloro-3-(2-isothiureidoethoxy)isocoumarin]",30 µM,–,–,–,–,–,–,–,–,–,–,–,–
CCOC(=O)C(=O)C(Cc1ccc(Cl)cc1)NC(=O)C(CC(C)C)NC(=O)OCc1ccccc1 (centres unmarked) [Z-Leu-4-Cl-Phe-COOEt],–,50 µM,> 100 µM,0.9 µM,0.4 µM,–,–,–,150 µM,< 4 µM,significant inhibition,+,–
"CCCCNC(=O)C(=O)C(CC)NC(=O)C(CC(C)C)NC(=O)OCc1ccccc1 (stereo not drawn) [Z-Leu-Abu-CONHnBu, Z-Leu-Abu-CONH-nBu]",–,13 µM,5 µM,> 300 µM,–,> 1 h,2 µM,> 1 h,–,0.2 µM,–,–,–
"CCCCOC(=O)C(=O)C(CC)NC(=O)C(CC(C)C)NC(=O)OCc1ccccc1 (stereo not drawn) [Z-Leu-Abu-COOnBu, Z-Leu-Abu-CO2 Bu]",–,4 µM,25 µM,> 100 µM,–,–,28 µM,–,10 µM,–,significant inhibition,–,–
CCOC(=O)C(=O)[C@H](Cc1ccccc1)NC(=O)[C@H](CC(C)C)NC(=O)[C@H](CC(C)C)NC(=O)OCc1ccccc1 [Z-Leu-Leu-Phe-COOEt],–,42 µM,> 100 µM,0.26 µM,1.9 µM,–,–,–,15 µM,1.4 µM,significant inhibition,++,–
"CC(C)C[C@H](NC(=O)OCc1ccccc1)C(=O)N[C@@H](Cc1ccccc1)C(=O)C(=O)OCc1ccccc1 [Z-Leu-Phe-COOBz, Z-Leu-Phe-CO2 Bzl]",–,45 µM,> 100 µM,1.6 µM,1.6 µM,–,–,0.0317 h,45 µM,3.4 µM,significant inhibition,++,–
Z-Leu-Met-CO2 Et [Z-Leu-Met-COOEt],–,55 µM,> 100 µM,1.75 µM,1.5 µM,–,–,0.133 h,140 µM,1 µM,significant inhibition,+,significant inhibition

# Second part, led by results:
IC50 (Calpain I [1]),Ki (Cathepsin B),Ki (PP Elastase),Ki (Chym),Ki (Calpain II),t1/2 liver [3],IC50 (Calpain within platelets),t1/2 plasma (Stability in plasma),Compound,Ki (Papain),Ki (Calpain I [2]),inhibition of Calpain within platelets (Calpain within platelets),"platelet assay, semi-quantitative (Calpain within platelets)",inhibition of spectrin proteolysis in crude brain extracts [4]
–,2 µM,–,> 300 µM,0.35 µM,> 1 h,1.5 µM,> 1 h,"CCC(NC(=O)C(CC(C)C)NC(=O)OCc1ccccc1)C(=O)C(=O)NCc1ccccc1 (stereo not drawn) [Z-Leu-Abu-CONHBz, Z-Leu-Abu-CONH-Bzl]",–,–,–,–,–
–,8 µM,2 µM,> 300 µM,0.25 µM,> 1 h,70 µM,> 1 h,"CCCNC(=O)C(=O)[C@H](CC)NC(=O)[C@H](CC(C)C)NC(=O)OCc1ccccc1 [Z-Leu-Abu-CONHnPr, Z-Leu-Abu-CONH-nPr]",–,–,–,–,–
–,1.5 µM,> 150 µM,> 150 µM,0.022 µM,> 1 h,8 µM,> 1 h,CCC(NC(=O)C(CC(C)C)NC(=O)OCc1ccccc1)C(=O)C(=O)O (stereo not drawn) [Z-Leu-Abu-COOH],–,0.075 µM,significant inhibition,–,–
–,3 µM,> 100 µM,8 µM,0.028 µM,> 1 h,38 µM,> 1 h,"CCCCNC(=O)C(=O)C(Cc1ccccc1)NC(=O)C(CC(C)C)NC(=O)OCc1ccccc1 (stereo not drawn) [Z-Leu-Phe-CONHnBu, Z-Leu-Phe-CONH-nBu]",–,–,–,–,–
–,3 µM,> 300 µM,18 µM,0.05 µM,> 1 h,24 µM,> 1 h,"CCCNC(=O)C(=O)C(Cc1ccccc1)NC(=O)C(CC(C)C)NC(=O)OCc1ccccc1 (stereo not drawn) [Z-Leu-Phe-CONHnPr, Z-Leu-Phe-CONH-nPr]",–,15 µM,–,–,–
–,4.5 µM,> 150 µM,76 µM,0.0057 µM,> 1 h,6.5 µM,> 1 h,CC(C)CC(NC(=O)OCc1ccccc1)C(=O)NC(Cc1ccccc1)C(=O)C(=O)O (stereo not drawn) [Z-Leu-Phe-COOH],–,0.0085 µM,significant inhibition,–,–

# From patent US5444042A, “Method of treatment of neurodegeneration with calpain inhibitors” (Cortex Pharmaceuticals, priority 1994, dated 1995)
